# Experimental data from patent US20180284095A1, “BIOMARKERS ASSOCIATED WITH LSD1 INHIBITORS AND USES THEREOF” (Oryzon Genomics, S.A., priority 2015, published 2018).
# Key:
# Assay type in all cases: in vivo, mouse
# S100A8 = experiment: Microarray gene expression in brain, spleen and liver of Hsd:Athymic Nude-Foxn1nu mice (Example 7)
# Experimental: (§1) Total RNA was extracted from samples using the RNeasy extraction kit (Qiagen). The quality and concentration of the RNA was analyzed using the Agilent 2100 bioanalyzer and NanoDrop™ ND-1000 (Thermo Scientific). Samples with RNA integrity number (RIN)<6.0 were discarded. Total RNA (0.5 μg) amplification and labelling with Cy3 or Cy5 was carried out using the Eberwein mRNA amplification procedure (Van Gelder et al, Proc Natl Acad Sci USA 1990, 87:1663-1667) employing the MessageAmp™ aRNA amplification kit from Ambion (Applied Biosystems) following the manufacturer's instructions with minor modifications. As hybridization controls, plant mRNAs were transcribed from a plasmid containing the Zea mays Xet (xyloglucan endo-transglycosylase) cDNA and from a plasmid containing the Zea mays Zmmyb42 cDNA, independently prepared Cy3 and Cy5 labelled aRNA from these two RNAs using the Eberwein mRNA amplification procedure (as disclosed in Cerdà et al, Gen Comp Endocrinol 2008, 156:470-481).
# (§2) The Cy3- and Cy5-labelled cRNAs and spikes were combined and hybridized to the microarray described in Example 2.6 for 17 h at 60° C. using Agilent's gaskets G2534-60002, G2534A hybridization chambers and DNA Hybridization Oven G2545A, according to the manufacturer's instructions. More specifically, equal amounts of Cy3 and Cy5 labeled Xet aRNA as well as equal amounts of Cy3 and Cy5 labeled Zmmyb42 aRNA were spiked into each mixture hybridized to the array. Arrays were washed and raw data were obtained using Agilent's DNA Microarray Scanner G2505B and Feature Extraction software (v10.1). The raw fluorescence intensity data were processed using applicant's proprietary software, and consists in the following operations:
# (§3) Data normalization was carried out by an improved version of the nonlinear Q-splines normalization method (Workman et al., Genome Biol 2002, 3(9):research0048.1-0048.16). Normalization results were presented graphically as MA plots, as first described by Dudoit et al (Dudoit et al, Statistica Sinica, 2002, 12:111-139). Each point corresponds to a probe of the DNA array. M values (vertical axis) are the log-differential expression ratios. A values (horizontal axis) are the log-intensities of the spots. M and A are calculated from the Cy5 and Cy3 intensity values as of each spot. The DNA Array data is normalized using an improved version of non-linear Q-Splines normalization described by Workman et al., Genome Biol 2002, 3(9):research0048.1-0048.16. This process is useful to correct the deviation of the M values from the statistical assumption that most of the spots have M=0 in MA plots. The method allows the adjustment of all M values to form a cloud centered at M=0 in all intensity ranges. The data used to calculate the normalization fitting curve is the totality of the raw measurement dataset, excluding the signals for the probes for the spiked-in plant RNA controls and negative controls. In order to be able to normalize properly the data among all the experiments, the probe-set must include an important group of genes that should have no change (M=0) in the experiment. The normalization function is then applied to all the data, including controls.
# (§4) Normalized and log-transformed data were used to calculate log 2 (sample/control) and Fold Change (FC) values. No background subtraction was applied to the signal intensity values during data processing, permitting robust selection of differentially expressed genes with low expression levels at the cost of potential sub-estimation of change when intensity levels are close to the array background level.
# (§5) Powered Compound 3, 4 or 5 was dissolved in a 20% solution of 2-hydroxypropyl-R-cyclodextrin in water at the appropriate concentrations, vortexed and placed in an ultrasonic bath for 5 minutes.
# (§6) Hsd:Athymic Nude-Foxn1nu mice were maintained in air- and temperature-controlled cages with regular supply of water and food. A maximum of 6 mice/cage were raised. […]
# S100A9 = experiment: as above
# Experimental: as §1, §2, §3, §4, §5, §6
# TUBB3 = experiment: Microarray gene expression in brain, spleen and liver of Hsd:Athymic Nude-Foxn1nu mice (Example 7), housekeeping gene
# Experimental: as §1, §2, §3, §4, §5, §6
# TUBB2C = experiment: as above
# Experimental: as §1, §2, §3, §4, §5, §6
structure (smiles),measurement,setting,value
"N[C@H]1CCN(CCN[C@H]2C[C@@H]2c2ccc(-c3cccc(C(F)(F)F)c3)cc2)C1 (racemic) [Compound 5, (S)-1-(2-(((trans)-2-(3′-(trifluoromethyl)-[1,1′-biphenyl]-4-yl)cyclopropyl)amino)ethyl)pyrrolidin-3-amine]",Hybridization signal sample_Cy5,"S100A8; BRAIN, S100A8, 3.3 mg/kg",268.162
same,log2 (sample/control),"S100A8; BRAIN, S100A8, 3.3 mg/kg vs VEH",−0.6462
same,Hybridization signal sample_Cy5,"S100A8; BRAIN, S100A8, 11 mg/kg",38.4889
same,log2 (sample/control),"S100A8; BRAIN, S100A8, 11 mg/kg vs VEH",−3.263
same,Hybridization signal sample_Cy5,"S100A8; BRAIN, S100A8, 33 mg/kg",36.6941
same,log2 (sample/control),"S100A8; BRAIN, S100A8, 33 mg/kg vs VEH",−3.57
same,Hybridization signal sample_Cy5,"S100A8; LIVER, S100A8, 3.3 mg/kg",315.439
same,log2 (sample/control),"S100A8; LIVER, S100A8, 3.3 mg/kg vs VEH",−0.4761
same,Hybridization signal sample_Cy5,"S100A8; LIVER, S100A8, 11 mg/kg",73.2915
same,log2 (sample/control),"S100A8; LIVER, S100A8, 11 mg/kg vs VEH",−2.357
same,Hybridization signal sample_Cy5,"S100A8; LIVER, S100A8, 33 mg/kg",57.5133
same,log2 (sample/control),"S100A8; LIVER, S100A8, 33 mg/kg vs VEH",−2.909
same,Hybridization signal sample_Cy5,"S100A8; SPLEEN, S100A8, 3.3 mg/kg",4802.3
same,log2 (sample/control),"S100A8; SPLEEN, S100A8, 3.3 mg/kg vs VEH",−1.65
same,Hybridization signal sample_Cy5,"S100A8; SPLEEN, S100A8, 11 mg/kg",382.984
same,log2 (sample/control),"S100A8; SPLEEN, S100A8, 11 mg/kg vs VEH",−5.38
same,Hybridization signal sample_Cy5,"S100A8; SPLEEN, S100A8, 33 mg/kg",408.877
same,log2 (sample/control),"S100A8; SPLEEN, S100A8, 33 mg/kg vs VEH",−5.243
same,Hybridization signal sample_Cy5,"S100A9; BRAIN, S100A9, 3.3 mg/kg",746.537
same,log2 (sample/control),"S100A9; BRAIN, S100A9, 3.3 mg/kg vs VEH",−0.9635
same,Hybridization signal sample_Cy5,"S100A9; BRAIN, S100A9, 11 mg/kg",60.5479
same,log2 (sample/control),"S100A9; BRAIN, S100A9, 11 mg/kg vs VEH",−4.54
same,Hybridization signal sample_Cy5,"S100A9; BRAIN, S100A9, 33 mg/kg",58.3941
same,log2 (sample/control),"S100A9; BRAIN, S100A9, 33 mg/kg vs VEH",−4.697
same,Hybridization signal sample_Cy5,"S100A9; LIVER, S100A9, 3.3 mg/kg",987.357
same,log2 (sample/control),"S100A9; LIVER, S100A9, 3.3 mg/kg vs VEH",−0.5728
same,Hybridization signal sample_Cy5,"S100A9; LIVER, S100A9, 11 mg/kg",170.929
same,log2 (sample/control),"S100A9; LIVER, S100A9, 11 mg/kg vs VEH",−3.056
same,Hybridization signal sample_Cy5,"S100A9; LIVER, S100A9, 33 mg/kg",113.971
same,log2 (sample/control),"S100A9; LIVER, S100A9, 33 mg/kg vs VEH",−3.811
same,Hybridization signal sample_Cy5,"S100A9; SPLEEN, S100A9, 3.3 mg/kg",13461.8
same,log2 (sample/control),"S100A9; SPLEEN, S100A9, 3.3 mg/kg vs VEH",−1.719
same,Hybridization signal sample_Cy5,"S100A9; SPLEEN, S100A9, 11 mg/kg",963.073
same,log2 (sample/control),"S100A9; SPLEEN, S100A9, 11 mg/kg vs VEH",−5.625
same,Hybridization signal sample_Cy5,"S100A9; SPLEEN, S100A9, 33 mg/kg",944.034
same,log2 (sample/control),"S100A9; SPLEEN, S100A9, 33 mg/kg vs VEH",−5.685
same,Hybridization signal sample_Cy5,"TUBB3; BRAIN, TUBB3, 3.3 mg/kg",4740.83
same,log2 (sample/control),"TUBB3; BRAIN, TUBB3, 3.3 mg/kg vs VEH",−0.05126
same,Hybridization signal sample_Cy5,"TUBB3; BRAIN, TUBB3, 11 mg/kg",6217.25
same,log2 (sample/control),"TUBB3; BRAIN, TUBB3, 11 mg/kg vs VEH",−0.02834
same,Hybridization signal sample_Cy5,"TUBB3; BRAIN, TUBB3, 33 mg/kg",5722.06
same,log2 (sample/control),"TUBB3; BRAIN, TUBB3, 33 mg/kg vs VEH",0.1073
same,Hybridization signal sample_Cy5,"TUBB3; LIVER, TUBB3, 3.3 mg/kg",49.0459
same,log2 (sample/control),"TUBB3; LIVER, TUBB3, 3.3 mg/kg vs VEH",−0.4483
same,Hybridization signal sample_Cy5,"TUBB3; LIVER, TUBB3, 11 mg/kg",43.197
same,log2 (sample/control),"TUBB3; LIVER, TUBB3, 11 mg/kg vs VEH",−0.6411
same,Hybridization signal sample_Cy5,"TUBB3; LIVER, TUBB3, 33 mg/kg",52.03
same,log2 (sample/control),"TUBB3; LIVER, TUBB3, 33 mg/kg vs VEH",−0.4211
same,Hybridization signal sample_Cy5,"TUBB3; SPLEEN, TUBB3, 3.3 mg/kg",88.3418
same,log2 (sample/control),"TUBB3; SPLEEN, TUBB3, 3.3 mg/kg vs VEH",0.169
same,Hybridization signal sample_Cy5,"TUBB3; SPLEEN, TUBB3, 11 mg/kg",229.738
same,log2 (sample/control),"TUBB3; SPLEEN, TUBB3, 11 mg/kg vs VEH",1.521
same,Hybridization signal sample_Cy5,"TUBB3; SPLEEN, TUBB3, 33 mg/kg",167.826
same,log2 (sample/control),"TUBB3; SPLEEN, TUBB3, 33 mg/kg vs VEH",1.398
same,Hybridization signal sample_Cy5,"TUBB2C; BRAIN, 3.3 mg/kg",10642
same,log2 (sample/control),"TUBB2C; BRAIN, 3.3 mg/kg vs VEH",−0.01396
same,Hybridization signal sample_Cy5,"TUBB2C; BRAIN, 11 mg/kg",11161.1
same,log2 (sample/control),"TUBB2C; BRAIN, 11 mg/kg vs VEH",−0.06127
same,Hybridization signal sample_Cy5,"TUBB2C; BRAIN, 33 mg/kg",12584.1
same,log2 (sample/control),"TUBB2C; BRAIN, 33 mg/kg vs VEH",−0.05145
same,Hybridization signal sample_Cy5,"TUBB2C; LIVER, 3.3 mg/kg",3670.67
same,log2 (sample/control),"TUBB2C; LIVER, 3.3 mg/kg vs VEH",0.3692
same,Hybridization signal sample_Cy5,"TUBB2C; LIVER, 11 mg/kg",3985.13
same,log2 (sample/control),"TUBB2C; LIVER, 11 mg/kg vs VEH",0.457
same,Hybridization signal sample_Cy5,"TUBB2C; LIVER, 33 mg/kg",4335.41
same,log2 (sample/control),"TUBB2C; LIVER, 33 mg/kg vs VEH",0.3205
same,Hybridization signal sample_Cy5,"TUBB2C; SPLEEN, 3.3 mg/kg",8986.8
same,log2 (sample/control),"TUBB2C; SPLEEN, 3.3 mg/kg vs VEH",−0.9476
same,Hybridization signal sample_Cy5,"TUBB2C; SPLEEN, 11 mg/kg",9222.71
same,log2 (sample/control),"TUBB2C; SPLEEN, 11 mg/kg vs VEH",−0.8739
same,Hybridization signal sample_Cy5,"TUBB2C; SPLEEN, 33 mg/kg",6535.64
same,log2 (sample/control),"TUBB2C; SPLEEN, 33 mg/kg vs VEH",−1.41
